Data taken from paper PMC4901301 (Scientific Reports, 2016).
Converted amounts (≈) assume the structure as drawn. Read-outs that look alike come from different tables or passages of the source.

Tests used:
Assay type in all cases: cell-based, Mycobacterium tuberculosis
Mtb MT 182 = assay: Resazurin (Alamar Blue) drug susceptibility testing, MT 182
Mtb TC 12561 = assay: Resazurin (Alamar Blue) drug susceptibility testing, TC 12561
Mtb TH 12768 = assay: Resazurin (Alamar Blue) drug susceptibility testing, TH 12768
[1] = tested on: Mtb H37Rv thyX Tet-OFF conditional knockdown mutant

| SMILES | MIC (Mtb MT 182; read-out: MIC) | MIC (Mtb TC 12561; read-out: MIC) | MIC (Mtb TH 12768; read-out: MIC) | also measured |
| --- | --- | --- | --- | --- |
| O=C1C(O)=C(Cc2ccco2)C(=O)c2ccccc21 [Compound 010C] | 176.5 µM (≈ 44.9 µg/mL) | 176.5 µM (≈ 44.9 µg/mL) | 176.5 µM (≈ 44.9 µg/mL) |  |
| CC(C)Oc1ccc(CC2=C(O)C(=O)c3ccccc3C2=O)cc1 [Compound 007D] | 96.9 µM (≈ 31.2 µg/mL) | 96.9 µM (≈ 31.2 µg/mL) | 96.9 µM (≈ 31.2 µg/mL) |  |
| O=C1C(O)=C(Cc2ccc(OC(F)(F)F)cc2)C(=O)c2ccccc21 [Compound 007C] | 44.9 µM (≈ 15.6 µg/mL) | 44.9 µM (≈ 15.6 µg/mL) | 44.9 µM (≈ 15.6 µg/mL) |  |
| COC1=C(OC)C(=O)C(CCCCCCCCCCO)=C(C)C1=O [Idebenone, idebenone, reference compound] |  |  |  | Growth inhibition [1]: ~ 90% |
| O=C1C(O)=C(Cc2cccs2)C(=O)c2ccccc21 [Compound 010D] | 462.4 µM (≈ 125 µg/mL) | 57.8 µM (≈ 15.6 µg/mL) | 231.2 µM (≈ 62.5 µg/mL) |  |
| O=C1C(O)=C(Cc2ccc(-c3ccc(Cl)cc3)cc2)C(=O)c2ccccc21 [Compound 007B] | 83.4 µM (≈ 31.3 µg/mL) | 83.4 µM (≈ 31.3 µg/mL) | 41.7 µM (≈ 15.6 µg/mL) |  |
| O=C1C(O)=C(Cc2ccc(F)c(C(F)(F)F)c2)C(=O)c2ccccc21 [Compound 010E] | 22.3 µM (≈ 7.81 µg/mL) | 22.3 µM (≈ 7.81 µg/mL) | 22.3 µM (≈ 7.81 µg/mL) |  |
| COc1cc(CC2=C(O)C(=O)c3ccccc3C2=O)ccc1O [Compound 010H] | 100.7 µM (≈ 31.2 µg/mL) | 201.4 µM (≈ 62.5 µg/mL) | 201.4 µM (≈ 62.5 µg/mL) |  |
| O=C1C(O)=C(Cc2ccc(C(F)(F)F)cc2)C(=O)c2ccccc21 [Compound 007F] | 94.1 µM (≈ 31.3 µg/mL) | 47.0 µM (≈ 15.6 µg/mL) | 94.1 µM (≈ 31.3 µg/mL) |  |
| CCCCC1=C(O)C(=O)c2ccccc2C1=O [Compound 010I] | 135.7 µM (≈ 31.2 µg/mL) | 271.4 µM (≈ 62.5 µg/mL) | 135.7 µM (≈ 31.2 µg/mL) |  |
| O=C1C(O)=C(Cc2ccc(Oc3ccccc3)cc2)C(=O)c2ccccc21 [Compound 007G] | 87.8 µM (≈ 31.3 µg/mL) | 87.8 µM (≈ 31.3 µg/mL) | 175.5 µM (≈ 62.5 µg/mL) |  |
| CS(=O)(=O)N1CCN(C2=C(Cl)C(=O)c3ccccc3C2=O)CC1 [Compound E1, 2-chloro-3-(4-methanesulfonylpiperazin-1-yl)-1,4-dihydronaphthalene-1,4-dione] |  |  |  | MIC90 shift (increase in potency) upon ThyX depletion [1]: ≥ 4 fold |
| CCOC(=O)C1=C(c2ccc(C)cc2)C(=O)c2ccccc2C1=O [Compound B6, ethyl 3-(4-methylphenyl)-1,4-dioxonaphtalene-2-carboxylate] |  |  |  | MIC90 shift (increase in potency) upon ThyX depletion [1]: no shift |
| NNC(=O)c1ccncc1 [INH, isoniazid, reference compound] |  |  |  | MIC (Mtb MT 182; Mycobacterium tuberculosis, MT182, read-out: MIC): < 0.91 µM; MIC (Mtb TC 12561; Mycobacterium tuberculosis, TC12561, read-out: MIC): 14.6 µM (≈ 2 µg/mL); MIC (Mtb TH 12768; Mycobacterium tuberculosis, TH12768, read-out: MIC): 3.64 µM (≈ 0.499 µg/mL) |
| CO[C@H]1/C=C/O[C@@]2(C)Oc3c(C)c(O)c4c(O)c(c(/C=N/N5CCN(C)CC5)c(O)c4c3C2=O)NC(=O)/C(C)=C\C=C\[C@H](C)[C@H](O)[C@@H](C)[C@@H](O)[C@@H](C)[C@H](OC(C)=O)[C@@H]1C [RMP, rifampicin, reference compound] |  |  |  | MIC (Mtb MT 182; Mycobacterium tuberculosis, MT182): 1.21 µM (≈ 0.996 µg/mL); MIC (Mtb TC 12561; Mycobacterium tuberculosis, TC12561): 4.86 µM (≈ 4 µg/mL); MIC (Mtb TH 12768; Mycobacterium tuberculosis, TH12768): < 0.3 µM |
| O=C1C(O)=C(Cc2ccc(Cl)cc2)C(=O)c2ccccc21 [Compound 010A] | 104.6 µM (≈ 31.2 µg/mL) | 52.3 µM (≈ 15.6 µg/mL) | 104.6 µM (≈ 31.2 µg/mL) |  |
| O=C1C(O)=C(Cc2cc(F)cc(F)c2)C(=O)c2ccccc21 [Compound 010B] | 104.1 µM (≈ 31.3 µg/mL) | 104.1 µM (≈ 31.3 µg/mL) | 52.1 µM (≈ 15.6 µg/mL) |  |
| O=C1C(O)=C(Cc2ccc(F)c(Cl)c2)C(=O)c2ccccc21 [Compound 010F] | 98.7 µM (≈ 31.3 µg/mL) | 49.3 µM (≈ 15.6 µg/mL) | 197.3 µM (≈ 62.5 µg/mL) |  |
| COc1ccc(CC2=C(O)C(=O)c3ccccc3C2=O)cc1OC [Compound 010K] | 385.4 µM (≈ 125 µg/mL) | 192.7 µM (≈ 62.5 µg/mL) | 192.7 µM (≈ 62.5 µg/mL) |  |
